{
  "source": "patent US11370798B2",
  "about": "(Vertex Pharmaceuticals Incorporated, priority 2012, dated 2022)",
  "data": [
    {"system": "HCT116 colorectal cancer cells", "test": "Cisplatin sensitization assay (96 h cell viability MTS);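 further: Test-compound concentration that lowers the Cisplatin IC50 by a set fold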", "type": "cell-based", "conditions": "compound and Cisplatin added simultaneously, Cisplatin sensitization value", "summary_of_the_method": "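Viability read by MTS (1 h at 37° C) after 96 h co-exposure at 37° C, 5% CO2. Test compound and cisplatin were dosed simultaneously in a full concentration matrix, each 2-fold serially diluted from 10 μM final; sensitization values binned in μM.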", "values": [
      {"compound": "Nc1nn2cc(Cl)cnc2c1C(=O)Nc1cnccc1O[C@H]1C[C@]2(CCN2)C1", "note": "[I-O-78, N-(4-((4s,6r)-1-azaspiro[3.3]heptan-6-yloxy)pyridin-3-yl)-2-amino-6-chloropyrazolo[1,5-a]pyrimidine-3-carboxamide]", "Cisplatin Sensitization Assay": "+ (Cisplatin sensitization value>0.2 μM but <5 μM)"},
      {"compound": "CO[C@H]1CCN(C(=O)C2CCN(c3ccncc3NC(=O)c3c(N)nn4cc(F)cnc34)CC2)C1", "note": "[I-G-94, (S)-2-amino-6-fluoro-N-(4-(4-(3-methoxypyrrolidine-1-carbonyl)piperidin-1-yl)pyridin-3-yl)pyrazolo[1,5-a]pyrimidine-3-carboxamide]", "Cisplatin Sensitization Assay": "+++ (Cisplatin sensitization value of <0.02 μM)"},
      {"compound": "Nc1nn2cc(F)cnc2c1C(=O)Nc1cnccc1N1CCCC2(COC2)C1", "note": "[I-N-253, N-(4-(2-oxa-6-azaspiro[3.5]nonan-6-yl)pyridin-3-yl)-2-amino-6-fluoropyrazolo[1,5-a]pyrimidine-3-carboxamide]", "Cisplatin Sensitization Assay": "+++ (Cisplatin sensitization value of <0.02 μM)"},
      {"compound": "CN1CC[C@H](Oc2ccncc2NC(=O)c2c(N)nn3cc(F)cnc23)C1", "note": "[I-O-1, (S)-2-amino-6-fluoro-N-(4-((1-methylpyrrolidin-3-yl)oxy)pyridin-3-yl)pyrazolo[1,5-a]pyrimidine-3-carboxamide]", "Cisplatin Sensitization Assay": "+++ (Cisplatin sensitization value of <0.02 μM)"},
      {"compound": "Nc1nn2cc(F)cnc2c1C(=O)Nc1cnccc1N1CCN(CC(F)(F)F)CC1", "note": "[I-N-20, 2-amino-6-fluoro-N-(4-(4-(2,2,2-trifluoroethyl)piperazin-1-yl)pyridin-3-yl)pyrazolo[1,5-a]pyrimidine-3-carboxamide]", "Cisplatin Sensitization Assay": "+++ (Cisplatin sensitization value of <0.02 μM)"},
      {"compound": "Nc1nn2cc(F)cnc2c1C(=O)Nc1cnccc1O[C@H]1CCCNC1", "note": "[I-O-85, (S)-2-amino-6-fluoro-N-(4-(piperidin-3-yloxy)pyridin-3-yl)pyrazolo[1,5-a]pyrimidine-3-carboxamide]", "Cisplatin Sensitization Assay": "+++ (Cisplatin sensitization value of <0.02 μM)"},
      {"compound": "Nc1nn2cc(F)cnc2c1C(=O)Nc1cncc2c1CCNC2", "note": "[I-C-7, 2-amino-6-fluoro-N-(5,6,7,8-tetrahydro-2,7-naphthyridin-4-yl)pyrazolo[1,5-a]pyrimidine-3-carboxamide]", "Cisplatin Sensitization Assay": "++ (Cisplatin sensitization value>0.02 μM but <0.2 μM)"},
      {"compound": "Cc1ncn(-c2ccncc2NC(=O)c2c(N)nn3cc(F)cnc23)n1", "note": "[I-N-161, 2-amino-6-fluoro-N-(4-(3-methyl-1H-1,2,4-triazol-1-yl)pyridin-3-yl)pyrazolo[1,5-a]pyrimidine-3-carboxamide]", "Cisplatin Sensitization Assay": "+ (Cisplatin sensitization value>0.2 μM but <5 μM)"},
      {"compound": "NCC1CCN(c2ccncc2NC(=O)c2c(N)nn3cc(Cl)cnc23)CC1", "note": "[I-N-91, 2-amino-N-(4-(4-(aminomethyl)piperidin-1-yl)pyridin-3-yl)-6-chloropyrazolo[1,5-a]pyrimidine-3-carboxamide]", "Cisplatin Sensitization Assay": "++ (Cisplatin sensitization value>0.02 μM but <0.2 μM)"},
      {"compound": "Nc1nn2cc(F)cnc2c1C(=O)Nc1cnccc1N1CCC(C(=O)N2CCCC2)CC1", "note": "[I-G-83, 2-amino-6-fluoro-N-(4-(4-(pyrrolidine-1-carbonyl)piperidin-1-yl)pyridin-3-yl)pyrazolo[1,5-a]pyrimidine-3-carboxamide]", "Cisplatin Sensitization Assay": "+++ (Cisplatin sensitization value of <0.02 μM)"},
      {"compound": "CN1CCN(C(=O)c2ccc(-c3ccncc3NC(=O)c3c(N)nn4cc(F)cnc34)cc2)CC1", "note": "[I-C-25, 2-amino-6-fluoro-N-(4-(4-(4-methylpiperazine-1-carbonyl)phenyl)pyridin-3-yl)pyrazolo[1,5-a]pyrimidine-3-carboxamide]", "Cisplatin Sensitization Assay": "+++ (Cisplatin sensitization value of <0.02 μM)"},
      {"compound": "C[C@@H]1CN(C2COC2)CCN1c1ccncc1NC(=O)c1c(N)nn2cc(F)cnc12", "note": "[I-N-23, (R)-2-amino-6-fluoro-N-(4-(2-methyl-4-(oxetan-3-yl)piperazin-1-yl)pyridin-3-yl)pyrazolo[1,5-a]pyrimidine-3-carboxamide]", "Cisplatin Sensitization Assay": "+++ (Cisplatin sensitization value of <0.02 μM)"},
      {"compound": "Nc1nn2cc(Cl)cnc2c1C(=O)Nc1cnccc1N1CCC(N2CC[C@H](F)C2)CC1", "note": "[I-N-103, (S)-2-amino-6-chloro-N-(4-(4-(3-fluoropyrrolidin-1-yl)piperidin-1-yl)pyridin-3-yl)pyrazolo[1,5-a]pyrimidine-3-carboxamide]", "Cisplatin Sensitization Assay": "+++ (Cisplatin sensitization value of <0.02 μM)"},
      {"compound": "Nc1nn2cc(Cl)cnc2c1C(=O)Nc1cnccc1C1CCN(C2COC2)CC1", "note": "[I-C-11, 2-amino-6-chloro-N-(4-(1-(oxetan-3-yl)piperidin-4-yl)pyridin-3-yl)pyrazolo[1,5-a]pyrimidine-3-carboxamide]", "Cisplatin Sensitization Assay": "+++ (Cisplatin sensitization value of <0.02 μM)"},
      {"compound": "COC1(CN(C)C)CCN(c2ccncc2NC(=O)c2c(N)nn3cc(Cl)cnc23)CC1", "note": "[I-N-46, 2-amino-6-chloro-N-(4-(4-((dimethylamino)methyl)-4-methoxypiperidin-1-yl)pyridin-3-yl)pyrazolo[1,5-a]pyrimidine-3-carboxamide]", "Cisplatin Sensitization Assay": "+++ (Cisplatin sensitization value of <0.02 μM)"},
      {"compound": "Cn1cncc1-c1c(F)cncc1NC(=O)c1c(N)nn2cc(F)cnc12", "note": "[I-C-79, 2-amino-6-fluoro-N-(5-fluoro-4-(1-methyl-1H-imidazol-5-yl)pyridin-3-yl)pyrazolo[1,5-a]pyrimidine-3-carboxamide]", "Cisplatin Sensitization Assay": "+++ (Cisplatin sensitization value of <0.02 μM)"},
      {"compound": "Nc1nn2cc(F)cnc2c1C(=O)Nc1cnccc1N1CCN(C(=O)C2COC2)CC1", "note": "[I-N-249]", "Cisplatin Sensitization Assay": "+++ (Cisplatin sensitization value of <0.02 μM)"},
      {"compound": "COCCS(=O)(=O)C1CCN(c2ccncc2NC(=O)c2c(N)nn3cc(F)cnc23)CC1", "note": "[I-N-208, 2-amino-6-fluoro-N-(4-(4-((2-methoxyethyl)sulfonyl)piperidin-1-yl)pyridin-3-yl)pyrazolo[1,5-a]pyrimidine-3-carboxamide]", "Cisplatin Sensitization Assay": "+++ (Cisplatin sensitization value of <0.02 μM)"},
      {"compound": "CN1CCC(C(=O)N2CCC(c3ccncc3NC(=O)c3c(N)nn4cc(F)cnc34)CC2)CC1", "note": "[I-C-16, 2-amino-6-fluoro-N-(4-(1-(1-methylpiperidine-4-carbonyl)piperidin-4-yl)pyridin-3-yl)pyrazolo[1,5-a]pyrimidine-3-carboxamide]", "Cisplatin Sensitization Assay": "+ (Cisplatin sensitization value>0.2 μM but <5 μM)"},
      {"compound": "Cc1nc(O[C@@H]2CCN(C)C2)ccc1-c1ccncc1NC(=O)c1c(N)nn2cc(F)cnc12", "note": "[I-C-41, (R)-2-amino-6-fluoro-N-(2-methyl-6-((1-methylpyrrolidin-3-yl)oxy)-[3,4′-bipyridin]-3′-yl)pyrazolo[1,5-a]pyrimidine-3-carboxamide]", "Cisplatin Sensitization Assay": "+++ (Cisplatin sensitization value of <0.02 μM)"},
      {"compound": "Nc1nn2cc(F)cnc2c1C(=O)Nc1cncc(Cl)c1N1CCC(C(=O)N2CCNCC2)CC1", "note": "[I-G-48, 2-amino-N-(5-chloro-4-(4-(piperazine-1-carbonyl)piperidin-1-yl)pyridin-3-yl)-6-fluoropyrazolo[1,5-a]pyrimidine-3-carboxamide]", "Cisplatin Sensitization Assay": "+++ (Cisplatin sensitization value of <0.02 μM)"},
      {"compound": "CNC1CCN(c2ccncc2NC(=O)c2c(N)nn3cc(Cl)cnc23)CC1", "note": "[I-N-87, 2-amino-6-chloro-N-(4-(4-(methylamino)piperidin-1-yl)pyridin-3-yl)pyrazolo[1,5-a]pyrimidine-3-carboxamide]", "Cisplatin Sensitization Assay": "++ (Cisplatin sensitization value>0.02 μM but <0.2 μM)"},
      {"compound": "CN(C)CCCOc1ccncc1NC(=O)c1c(N)nn2cc(Cl)cnc12", "note": "[I-O-52, 2-amino-6-chloro-N-(4-(3-(dimethylamino)propoxy)pyridin-3-yl)pyrazolo[1,5-a]pyrimidine-3-carboxamide]", "Cisplatin Sensitization Assay": "+ (Cisplatin sensitization value>0.2 μM but <5 μM)"},
      {"compound": "CN1CCOC(C(=O)N2CCN(c3c(F)cncc3NC(=O)c3c(N)nn4cc(F)cnc34)CC2)C1", "note": "(stereo not drawn) [I-N-174, 2-amino-6-fluoro-N-(5-fluoro-4-(4-(4-methylmorpholine-2-carbonyl)piperazin-1-yl)pyridin-3-yl)pyrazolo[1,5-a]pyrimidine-3-carboxamide]", "Cisplatin Sensitization Assay": "+++ (Cisplatin sensitization value of <0.02 μM)"},
      {"compound": "COC1(C)CN(C(=O)C2CCN(c3c(F)cncc3NC(=O)c3c(N)nn4cc(F)cnc34)CC2)C1", "note": "[I-G-75, 2-amino-6-fluoro-N-(5-fluoro-4-(4-(3-methoxy-3-methylazetidine-1-carbonyl)piperidin-1-yl)pyridin-3-yl)pyrazolo[1,5-a]pyrimidine-3-carboxamide]", "Cisplatin Sensitization Assay": "+++ (Cisplatin sensitization value of <0.02 μM)"},
      {"compound": "CS(=O)(=O)C1CCCN(c2ccncc2NC(=O)c2c(N)nn3cc(F)cnc23)C1", "note": "(stereo not drawn) [I-N-221, 2-amino-6-fluoro-N-(4-(3-(methylsulfonyl)piperidin-1-yl)pyridin-3-yl)pyrazolo[1,5-a]pyrimidine-3-carboxamide]", "Cisplatin Sensitization Assay": "++ (Cisplatin sensitization value>0.02 μM but <0.2 μM)"},
      {"compound": "Nc1nn2cc(F)cnc2c1C(=O)Nc1cnccc1OC1CCOC1", "note": "(racemic) [I-O-15, (R,S)-2-amino-6-fluoro-N-(4-((tetrahydrofuran-3-yl)oxy)pyridin-3-yl)pyrazolo[1,5-a]pyrimidine-3-carboxamide]", "Cisplatin Sensitization Assay": "+++ (Cisplatin sensitization value of <0.02 μM)"},
      {"compound": "Nc1nn2cc(F)cnc2c1C(=O)Nc1cnccc1N1CCN(C2COC2)C2CC21", "note": "(stereo not drawn) [I-N-31, 2-amino-6-fluoro-N-(4-(5-(oxetan-3-yl)-2,5-diazabicyclo[4.1.0]heptan-2-yl)pyridin-3-yl)pyrazolo[1,5-a]pyrimidine-3-carboxamide]", "Cisplatin Sensitization Assay": "+ (Cisplatin sensitization value>0.2 μM but <5 μM)"},
      {"compound": "Nc1nn2cc(F)cnc2c1C(=O)Nc1cnccc1C1CC1", "note": "[I-C-42, 2-amino-N-(4-cyclopropylpyridin-3-yl)-6-fluoropyrazolo[1,5-a]pyrimidine-3-carboxamide]", "Cisplatin Sensitization Assay": "++ (Cisplatin sensitization value>0.02 μM but <0.2 μM)"},
      {"compound": "Nc1nn2cc(F)cnc2c1C(=O)Nc1cnccc1Oc1cccnc1", "note": "[I-O-7, 2-amino-6-fluoro-N-(4-(pyridin-3-yloxy)pyridin-3-yl)pyrazolo[1,5-a]pyrimidine-3-carboxamide]", "Cisplatin Sensitization Assay": "++ (Cisplatin sensitization value>0.02 μM but <0.2 μM)"}
    ]}
  ]
}
